Data from patent publication US20110172147A1, “NEUROPEPTIDE-2 RECEPTOR (Y-2R) AGONISTS” (priority 2009, published 2011).

How the values were obtained:
Format in all cases: cell-based
Y1R = biological target: T1, Y1R (Homo sapiens, UniProt P25929); assay: CaFlux Assay (FLIPR), Y1R
T1 sequence (P25929 1-384): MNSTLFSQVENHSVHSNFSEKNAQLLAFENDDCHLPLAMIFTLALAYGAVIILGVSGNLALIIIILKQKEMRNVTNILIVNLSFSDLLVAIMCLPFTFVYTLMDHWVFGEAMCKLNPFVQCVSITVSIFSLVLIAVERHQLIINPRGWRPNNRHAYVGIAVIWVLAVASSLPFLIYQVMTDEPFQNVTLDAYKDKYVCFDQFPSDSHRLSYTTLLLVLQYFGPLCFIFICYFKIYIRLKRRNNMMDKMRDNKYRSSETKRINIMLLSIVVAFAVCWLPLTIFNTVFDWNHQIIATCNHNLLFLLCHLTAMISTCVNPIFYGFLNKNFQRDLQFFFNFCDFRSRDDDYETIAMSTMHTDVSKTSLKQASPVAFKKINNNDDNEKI

Y4R = Y4R (Homo sapiens, UniProt P50391); assay: CaFlux Assay (FLIPR), Y4R
Y5R = biological target: T2, Y5R (Homo sapiens, UniProt Q15761); assay: CaFlux Assay (FLIPR), Y5R
T2 sequence (Q15761 1-445): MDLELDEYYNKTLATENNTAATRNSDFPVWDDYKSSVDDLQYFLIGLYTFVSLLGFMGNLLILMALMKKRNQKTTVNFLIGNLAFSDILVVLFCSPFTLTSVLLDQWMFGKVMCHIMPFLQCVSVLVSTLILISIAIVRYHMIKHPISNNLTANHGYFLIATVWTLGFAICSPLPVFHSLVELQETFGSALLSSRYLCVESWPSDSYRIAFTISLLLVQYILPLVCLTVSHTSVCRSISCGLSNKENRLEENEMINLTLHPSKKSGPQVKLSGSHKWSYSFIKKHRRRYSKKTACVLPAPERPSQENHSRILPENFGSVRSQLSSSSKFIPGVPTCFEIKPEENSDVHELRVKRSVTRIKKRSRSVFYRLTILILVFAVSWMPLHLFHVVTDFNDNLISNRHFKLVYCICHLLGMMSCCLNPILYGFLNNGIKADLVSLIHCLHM

hNPY2R [1] = biological target: T3, hNPY2R (Homo sapiens, UniProt P49146); assay: cAMP Agonist Assay, HEK293/hNPY2R; set-up: expressed in transfected cells; host or cells: HEK293/hNPY2R (G418 selection)
T3 sequence (P49146 1-381): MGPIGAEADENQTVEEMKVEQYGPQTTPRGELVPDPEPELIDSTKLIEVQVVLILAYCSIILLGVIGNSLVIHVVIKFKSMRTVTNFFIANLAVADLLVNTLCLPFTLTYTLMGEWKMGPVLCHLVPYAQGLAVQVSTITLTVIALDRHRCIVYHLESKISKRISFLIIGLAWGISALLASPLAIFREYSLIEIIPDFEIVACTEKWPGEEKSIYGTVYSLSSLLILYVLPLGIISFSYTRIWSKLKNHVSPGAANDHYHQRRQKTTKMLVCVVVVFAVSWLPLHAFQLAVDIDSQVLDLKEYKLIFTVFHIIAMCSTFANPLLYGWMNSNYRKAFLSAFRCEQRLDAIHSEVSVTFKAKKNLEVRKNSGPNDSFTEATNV
Description: In this example, the following materials were used: 384-well plate; Tropix cAMP-Screen Kit; cAMP ELISA System (Applied Biosystems, cat. #T1505; CS 20000); Forskolin (Calbiochem cat. # 344270); cells: HEK293/hNPY2R; growth medium: Dulbecco's modified eagle medium (D-MEM, Gibco); 10% Fetal bovine serum (FBS, Gibco), heat-inactivated; 1% Penicillin/Streptomycin (Pen 10000 unit/mL: Strep […], Gibco); […] G418 (Geneticin, Gibco cat. # 11811-031); and plating medium: DMEM/F12 w/o phenol red (Gibco); 10% FBS (Gibco, cat. # 10082-147), heat-inactivated; 1% Penicillin/Streptomycin (Gibco, cat. # 15140-122); […] G418 (Geneticin, Gibco, cat. # 11811-031).
On the first day, medium was discarded, and the monolayer cells were washed with 10 mL PBS per flask (T225). After decanting with PBS, 5 mL VERSENE (Gibco, cat #1504006) was used to dislodge the cells (5 min @37 C). The flask was gently tapped and the cell suspension was pooled. Each flask was rinsed with 10 mL plating medium and centrifuged at 1000 rpm for 5 min. The suspension was pooled and counted. The suspension was resuspended in plating medium at a density of 2.0×10^5 cells/mL for HEK293/hNPY2R. 50 microliters of cells (HEK293/hNPY2R-10,000 cells/well) were transferred into the 384-well plate using Multi-drop dispenser. The plates were incubated at 37° C. overnight. On the second day, the cells were checked for 75-85% confluence. The media and reagents were allowed to come to room temperature. Before the dilutions were prepared, the stock solution of stimulating compound in dimethyl sulphoxide (DMSO, Sigma, cat #D2650) was allowed to warm up to 32 C for 5-10 min. The dilutions were prepared in DMEM/F12 with 0.5 mM 3-Isobutyl-1-methylxanthine (IBMX, Calbiochem, cat #410957) and 0.5 mg/mL BSA. The final DMSO concentration in the stimulation medium was 1.1% with Forskolin concentration of 5 μM. The cell medium was tapped off with a gentle inversion of the cell plate on a paper towel. 50 μL of stimulation medium was placed per well (each concentration done in four replicates). The plates were incubated at room temperature for 30 min, and the cells were checked under a microscope for toxicity. After 30 minutes of treatment, the stimulation media was discarded and […] of Assay Lysis Buffer (provided in the Tropix kit) was added. The plates were incubated for 45 min @ 37° C. 20 μL of the lysate was transferred from stimulation plates into the pre-coated antibody plates (384-well) from the Tropix kit. 10 μL of AP conjugate and 20 μL of anti-cAMP antibody was added. The plates were incubated at room temperature while shaking for 1 hour. The plates were then washed 5 times with Wash Buffer, 70 μL per well for each wash. The plates were tapped to dry. 30 μL/well of CSPD/Saphire-II RTU substrate/enhancer solution was added and incubated for 45 min @ RT (shake). Signal for 1 sec/well in a Luminometer. (VICTOR-V) was measured.

hNPY2R [2] = biological target: T3, hNPY2R; assay: CaFlux Assay (FLIPR), Y2R; set-up: expressed in transfected cells; host or cells: HEK-293 stably transfected with G protein chimera Gαqi9
Description: HEK-293 cells were stably transfected with the G protein chimera Gαqi9 and the hygromycin-B resistance gene were further transfected with the human NPY2 receptor and G418 antibiotic selection. Following selection in both hygromycin-B and G418, individual clones were assayed for their response to PYY. The transfected cells were cultured in DMEM medium supplemented with 10% fetal bovine serum, 50 μg/mL hygromycin-B, 2 mM glutamine, 100 U/mL penicillin, 100 μg/mL streptomycin and 250 μg/mL G418. Cells are harvested with trypsin-EDTA and counted using ViaCount reagent. The cell suspension volume is adjusted to 4.8×10^5 cells/mL with complete growth media. Aliquots of 25 μL are dispensed into 384 well Poly-D Lysine coated black/clear microplates (Falcon) and the microplates were placed in a 37° C. CO2 incubator overnight. Loading Buffer (Calcium-3 Assay Kit, Molecular Devices) was prepared by dissolving the contents of one vial (Express Kit) into […] Hank's Balanced Salt Solution containing 20 mM HEPES and 5 mM probenecid. Aliquots of 25 μL of diluted dye were dispensed into the cell plates and the plates are then incubated for 1 hour at 37° C. During the incubation, test compounds were prepared at 3.5× the desired concentration in HBSS (20 mM HEPES)/0.05% BSA/1% DMSO and transferred to a 384-well plate for use on FLIPR. After incubation, both the cell and compound plates were brought to the FLIPR and 20 μL of the diluted compounds were transferred to the cell plates by the FLIPR. During the assay, fluorescence readings were taken simultaneously from all 384 wells of the cell plate every 1.5 seconds. Five readings were taken to establish a stable baseline, and then 20 μL of sample was rapidly (30 μL/sec) and simultaneously added to each well of the cell plate. The fluorescence was continuously monitored before, during and after sample addition for a total elapsed time of 100 seconds. Responses (increase in peak fluorescence) in each well following addition were determined. The initial fluorescence reading from each well, prior to ligand stimulation, was used as a zero baseline value for the data from that well. The responses are expressed as % of maximal response of the positive control.

Sequence of Y4R (P50391 whole entry): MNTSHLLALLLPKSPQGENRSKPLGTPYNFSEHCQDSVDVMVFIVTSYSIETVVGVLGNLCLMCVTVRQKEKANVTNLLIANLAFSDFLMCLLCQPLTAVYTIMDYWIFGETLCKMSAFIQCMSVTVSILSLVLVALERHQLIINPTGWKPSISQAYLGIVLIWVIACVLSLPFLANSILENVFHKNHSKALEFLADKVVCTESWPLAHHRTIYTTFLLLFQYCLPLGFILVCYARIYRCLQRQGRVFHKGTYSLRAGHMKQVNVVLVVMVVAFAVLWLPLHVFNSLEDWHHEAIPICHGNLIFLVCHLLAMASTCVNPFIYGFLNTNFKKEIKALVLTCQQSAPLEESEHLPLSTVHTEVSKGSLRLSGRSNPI

Compound | EC50 (Y1R) [nM] | EC50 (Y4R) [nM] | EC50 (Y5R) [nM] | EC50 (hNPY2R [1]) [nM] | EC50 (hNPY2R [2]) [nM] | Y5R FLIPR agonist character (partial agonist mark) (Y5R; FLIPR)
CCCCCCCCCCCCCCCC(=O)NCCCCCC(=O)NCCCC[C@H](NC(=O)[C@@H](NC(=O)CCOCCOCCOCCOCCOCCOCCOCCOCCOCCOCCOCCOCCOCCOCCOCCOCCOCCOCCOCCOCCOCCOCCOCCOC)[C@@H](C)CC)C(=O)N1CCN(c2ccc3ncn(CC(=O)N[C@@H](CCCNC(=N)N)C(=O)N[C@@H](Cc4c[nH]cn4)C(=O)N[C@@H](Cc4ccc(O)cc4)C(=O)N[C@@H](CC(C)C)C(=O)N[C@@H](CC(N)=O)C(=O)N[C@@H](Cc4c[nH]c5ccccc45)C(=O)N[C@H](C(=O)N[C@H](C(=O)N[C@@H](CCCNC(=N)N)C(=O)N[C@@H](CCC(N)=O)C(=O)N(C)[C@@H](CCCNC(=N)N)C(=O)N[C@@H](Cc4ccc(O)cc4)C(N)=O)[C@@H](C)O)C(C)C)c(=O)c3c2)CC1 [Example 11] | > 5000 | > 5000 | 915 | 0.08 | 0.058 | 
CCCCCCCCCCCCCCCC(=O)NCCOCCNC(=O)CCC(=O)NCCCC[C@H](NC(=O)[C@@H](NC(=O)COCCOCCOCCOCCOCCOC)[C@@H](C)CC)C(=O)N1CCN(c2ccc3ncn(CC(=O)N[C@@H](CCCNC(=N)N)C(=O)N[C@@H](Cc4c[nH]cn4)C(=O)N[C@@H](Cc4ccc(O)cc4)C(=O)N[C@@H](CC(C)C)C(=O)N[C@@H](CC(N)=O)C(=O)N[C@@H](Cc4c[nH]c5ccccc45)C(=O)N[C@H](C(=O)N[C@H](C(=O)N[C@@H](CCCNC(=N)N)C(=O)N[C@@H](CCC(N)=O)C(=O)N(C)[C@@H](CCCNC(=N)N)C(=O)N[C@@H](Cc4ccc(O)cc4)C(N)=O)[C@@H](C)O)C(C)C)c(=O)c3c2)CC1 [Example 12] | > 5000 | > 5000 | 527 | 0.09 | 0.097 | 
CCCCCCCCCCCCCCCC(=O)NCCOCCNC(=O)CCC(=O)NCCCC[C@H](NC(=O)[C@@H](NC(=O)CCOCCOCCOCCOCCOCCOCCOCCOCCOCCOCCOCCOC)[C@@H](C)CC)C(=O)N1CCN(c2ccc3ncn(CC(=O)N[C@@H](CCCNC(=N)N)C(=O)N[C@@H](Cc4c[nH]cn4)C(=O)N[C@@H](Cc4ccc(O)cc4)C(=O)N[C@@H](CC(C)C)C(=O)N[C@@H](CC(N)=O)C(=O)N[C@@H](Cc4c[nH]c5ccccc45)C(=O)N[C@H](C(=O)N[C@H](C(=O)N[C@@H](CCCNC(=N)N)C(=O)N[C@@H](CCC(N)=O)C(=O)N(C)[C@@H](CCCNC(=N)N)C(=O)N[C@@H](Cc4ccc(O)cc4)C(N)=O)[C@@H](C)O)C(C)C)c(=O)c3c2)CC1 [Example 13] | > 5000 | > 5000 | 401 | 0.15 | 0.055 | 
CCCCCCCCCCCCCCCC(=O)NCCOCCNC(=O)CCC(=O)NCCCC[C@H](NC(=O)[C@@H](NC(=O)CCOCCOCCOCCOCCOCCOCCOCCOCCOCCOCCOCCOCCOCCOCCOCCOC)[C@@H](C)CC)C(=O)N1CCN(c2ccc3ncn(CC(=O)N[C@@H](CCCNC(=N)N)C(=O)N[C@@H](Cc4c[nH]cn4)C(=O)N[C@@H](Cc4ccc(O)cc4)C(=O)N[C@@H](CC(C)C)C(=O)N[C@@H](CC(N)=O)C(=O)N[C@@H](Cc4c[nH]c5ccccc45)C(=O)N[C@H](C(=O)N[C@H](C(=O)N[C@@H](CCCNC(=N)N)C(=O)N[C@@H](CCC(N)=O)C(=O)N(C)[C@@H](CCCNC(=N)N)C(=O)N[C@@H](Cc4ccc(O)cc4)C(N)=O)[C@@H](C)O)C(C)C)c(=O)c3c2)CC1 [Example 14] | > 5000 | > 5000 | 370 | 0.08 | 0.032 | P.A
